Tests used:
[1] = tested on: denuded oocytes (DO); test: Oocyte assay, antagonistic testing, inhibition of FF-Mas induced maturation in denuded oocytes (DO assay); type: cell-based, mice (B6D2-F1, strain C57BL×DBA); conditions: FF-Mas 5 μM, compound tested 5 μM, control (FF-Mas alone) in brackets
Method: (§1) The meiosis inhibiting activity of the 22R-hydroxycholesta-8,14-diene derivatives of the invention is measured in an in vitro oocyte assay as the ability to inhibit the FF-Mas or 22S-hydroxy-FF-Mas induced maturation, in hypoxanthine media, in denuded oocytes (DO) or cumulus enclosed oocytes (CEO), respectively. Natural resumption of meiosis can be mimicked in vitro by addition of FF-Mas or other agonists to the culture medium containing hypoxanthine. The antagonistic activity of the compounds is measured as the ability to inhibit the FF-Mas or 22S-hydroxy-FF-Mas induced oocyte maturation in denuded oocytes or cumulus enclosed oocytes, respectively, in vitro. Ovaries are obtained from immature female mice (B6D2-F1, strain C57BL×DBA). At the age of 19, 20 or 21 days the mice are injected subcutaneously with a single dose of 20 IU follicle stimulating hormone (Humegon, Organon, The Netherlands) in saline. Forty-eight hours after follicle stimulating hormone injection mice are killed by cervical dislocation. The ovaries are removed, freed of extraneous tissue and placed in a multidish containing 0.5 ml preparation medium at 37° C. L-15 Leibovitz medium (Gibco, pH 7.3±0.1) supplemented with bovine serum albumin (3 mg·ml^−1), L-glutamine (0.23 mM), sodium pyruvate (2 mM) and hypoxanthine (4 mM) is used as preparation medium. The antral follicles of the ovaries are punctured under a dissecting microscope using two 27-gauge needles attached to two 1 ml syringes. […] At t=0 the number of oocytes with intact germinal vesicles (GV) or germinal vesicle break-down (GVBD) is counted under an inverted microscope with differential interference contrast equipment. […] At the end of the culture period the number of oocytes with GV or GVBD per group is counted. For statistical analysis the percentage germinal vesicle breakdown is calculated for each group in one block. These percentages are subjected to arcsin transformation, and differences between control and test compounds are analyzed by an ANOVA test for a randomized block design. […]

[2] = tested on: cumulus enclosed oocytes (CEO); test: Oocyte assay, antagonistic testing, inhibition of 22S-hydroxy-FF-Mas induced maturation in cumulus enclosed oocytes (CEO assay); type: cell-based, mice (B6D2-F1, strain C57BL×DBA); conditions: 22S-hydroxy-FF-Mas 5 μM, control (22S-hydroxy-FF-Mas alone) in brackets
Method: as §1

[3] = tested on: naturally occurring meiosis activating substance; conditions: as disclosed in WO98/28323; cited from earlier work
[4] = target: T1, LXRα receptor (Homo sapiens, UniProt Q13133); conditions: among a series of hydroxycholestane derivatives; cited from earlier work
T1 sequence (Q13133 1-447): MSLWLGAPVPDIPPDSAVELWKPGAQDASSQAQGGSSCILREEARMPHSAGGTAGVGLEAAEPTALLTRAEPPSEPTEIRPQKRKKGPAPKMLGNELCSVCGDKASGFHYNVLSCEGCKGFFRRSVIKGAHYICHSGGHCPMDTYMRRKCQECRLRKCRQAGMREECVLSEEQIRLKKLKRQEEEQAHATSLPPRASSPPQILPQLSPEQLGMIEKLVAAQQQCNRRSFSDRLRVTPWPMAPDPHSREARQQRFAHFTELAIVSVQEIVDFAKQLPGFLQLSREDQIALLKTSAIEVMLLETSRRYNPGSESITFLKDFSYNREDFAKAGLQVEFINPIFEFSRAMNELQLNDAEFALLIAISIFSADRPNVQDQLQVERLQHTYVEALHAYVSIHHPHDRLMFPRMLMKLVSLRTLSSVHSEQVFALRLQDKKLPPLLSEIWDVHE

SMILES: CC(C)CC[C@@H](O)[C@@H](C)[C@H]1CC[C@H]2[C@@H]3CC=C4C[C@@H](O)CC[C@]4(C)[C@H]3CC[C@]12C [22R-hydroxycholesterol]
- % GVBD DO assay exp. [1]: 38(89) %
- % GVBD CEO assay exp. [2]: 52(89)^4%
- antagonist activity (meiosis regulating) [3]: only weakly active as an antagonist
- activation of the LXRα receptor [4]: most potent activator of the LXRα receptor
